What was measured:
endothelial cells = test: Binding of 32P-labelled relaxin to endothelial cells
THP-1 cells = test: THP-1 cells: VEGF and bFGF mRNA induction; assay type: cell-based, human; conditions: 100 ng/ml for 3 hours (FIG. 9)
Method: Sense and anti-sense primers for use with the real time RT-PCR, ABI Prism 7700 Sequence Detection System were designed using the PrimerExpress version 1.0 software (PE Applied Biosystems, Inc.). Rat and human specific primer/probe sets included those for GAPDH, bFGF, the VEGF 164 aa or 120 aa rat isoforms, and their respective human homologues (VEGF 165 and VEGF 121). ABI PRISM specific primer/probes were purchased from BioSource International Inc. or PE Applied Biosystems.
RT-PCR was performed on 150 ng for the analysis of VEGF and bFGF mRNA expression. Ten nanograms of total RNA was used for GAPDH niRNA expression. […] Data were analyzed using Sequence Detector v1.6.3 software (Applied Biosystems/PE). […]
Because macrophages are the inflammatory cells predominantly responsible for the angiogenic response that occurs during healing, a monocyte/macrophage cell line shown previously to bind relaxin with high affinity (THP-1) (Parsell et al. (1996) J. Biol. Chem. 271:27936-27941) was tested for relaxin inducibility of VEGF and bFGF. […] In order to determine whether the increase in VEGF mRNA observed following short-term relaxin treatment was reflected by an elevation in secreted VEGF protein, THP-1 cells were treated with relaxin (0.01-100 ng/ml) for 24 h, the conditioned media collected, and VEGF content in the media quantified by ELISA. […]

[1] = test system: rat VEGF164, VEGF120 and bFGF mRNA in peri-infarct area of rat hearts; test: Rat myocardial infarct (LCAL) model: quantitative RT-PCR of VEGF and bFGF; assay type: in vivo
Method: Female Sprague Dawley rats, approximately 12-weeks of age were used. Rats were anesthetized by intraperitoneal (i.p.) injection of up to 1 ml/kg ketamine/medetomidine (6:4). Following exteriorization of the heart, the left coronary artery was ligated near its origin with a silk suture. In sham surgery control animals, the suture was placed superficially into the muscle adjacent to the coronary artery. Post-closure EKG's were monitored for S-T segment elevation in LCAL animals to confirm the outcome of ligation. Immediately following cardiac surgery, a primed mini-osmotic pump containing relaxin or vehicle (20 mM acetate, pH 5.0) was aseptically implanted into a subcutaneous (s.c.) pocket on the dorsal interscapular region. Vehicle or relaxin (0.1 mg/kg/day) was delivered as a continuous s.c. infusion for 7 or 21 days to either sham or LCAL animals. Animals were terminated on day 7 or 21, and the peri-infarct regions anterior to the scar in the left ventricle, or equivalent sites on sham surgery animals were harvested.
The left coronary artery ligation (LCAL) model of myocardial ischemia in the rat (Selye et al. (1960) Angiology 11:398-407) caused profound, acute damage, involving up to 50% of the left ventricular free wall. Following systemic relaxin treatment, using rhRLX, tissue RNA was examined at 7 and 21 days post-infarction for persistent changes in VEGF and bFGF. Cells in the immediate margins surrounding the infarct were sampled to assess angiogenic cytokine expression, using quantitative RT-PCR analysis. Oligonucleotide primers and TaqMan probes, shown in Table 8, were purchased from BioSource International Inc.(Camarillo, Calif.), or PE Applied Biosystems for use with the ABI Prism^7 7700 Sequence Detection System (quantitative PCR) (PE Applied Biosystems).
Oligonucleotides were designed to rat or human bFGF, human VEGF165 amino acid or 121 amino acid isoforms, and their respective rat homologues (VEGF164 and VEGF120), and human HGF (for use with the PE Applied Biosystems “GeneAmp PCR System 9600”). Rat and human GAPDH primers and probes were purchased from BioSource International Inc. and PE Applied Biosystems, respectively. Tissue samples and monolayer cells were suspended in RNA STAT-60 (Tel-Test, Inc., Friendswood, Tex.) and processed following vendor instructions. Reverse transcription-polymerase chain reaction (RT-PCR) was performed using either rat or human total RNA as template. 150 ng of total RNA was used for the analysis of VEGF, bFGF and HGF mRNA expression; 10 ng of total RNA was used for GAPDH mRNA expression. Reverse transcription-polymerase chain reaction (RT-PCR) reagents were purchased from PE Biosystems (Foster City, Calif.).
RNA was extracted from peri-infarct regions of rat hearts following LCAL or an analogous area of sham hearts. […]

“rhRLX: recombinant human relaxin, identical in amino acid sequence to the product of the human H2 gene; A chain of 24, B chain of 29 amino acids” was tested, and the “binding of 32P-labelled relaxin to endothelial cells” value (endothelial cells) was “could not be detected”, the “Transcripts for VEGF” value (THP-1 cells) was “specifically upregulated” and the “increase in peri-infarct bFGF expression (mRNA)” value ([1]; 0.1 mg/kg/day s.c., both 7 and 21 days, vs vehicle-treated infarcted hearts) was 2 fold. For the same substance, the “relative expression of either VEGF isoform, peri-infarct regions” value ([1]; 0.1 mg/kg/day, day 7) was “no changes”, the “relative levels of VEGF164 and VEGF120 transcripts” value ([1]; 0.1 mg/kg/day, day 21) was “trend towards an increase” and the “VEGF or bFGF mRNA expression” value ([1]; sham surgery animals) was “no effect”.

Source: US6723702B2, “Use of relaxin treat diseases related to vasoconstriction” (RAS Medical, Inc., priority 2000, dated 2004)
